In article PMC5733030, “Characterizing Isozymes of Chlorite Dismutase for Water Treatment” (Frontiers in Microbiology, 2017):

Tested on: T1, MbCld
T1 construct: gene cld; native, soluble protein fraction of chlorate-grown cells; not purified
Assay: chloride ion selective electrode, initial rates, Michaelis-Menten fit
Assay type: biochemical, Magnetospirillum bellicus
Details: 10 mM phosphate buffer pH 7.0, 21–23°C; soluble protein fraction
From the text: chloride ion selective electrode, initial rates, Michaelis-Menten fit on MbCld

## [O-][Cl+]O [chlorite]
  Km: 360 ± 210 µM
